Experimental data as given in US11813305B2, “Endoplasmic reticulum stress as a predictive tool in cancer therapy and a combination therapy for the treatment of cancer” (IMMUNE SYSTEM KEY LTD., priority 2016, dated 2023).

Experiments:
[1] = system: human pancreatic cancer cells (BxPC3); test: BrdU incorporation assay; assay type: cell-based; conditions: Taxol alone, 2 nM or 4 nM, FIG. 13B
Experimental: (§1) Cells were placed at 2,000 cells/well in the middle of a 96 well plate with 100 μl DMEM (life science 41965-039) and 10% fetal calf serum (FBS, Biological industries 14-127-1A) for 24 hours in an incubator at 37° C. with 5% CO2. The medium was then replaced to 200 μl DMEM with 2.5% FBS and Taxol (sigma T7402) at a final concentration of 2 nM or 4 nM in DMSO or dTCApFs (nextar ISK353-01 batch 351-01/1.68) at a final concentration of 25 μg/ml in DMSO. The medium in the control cells was replaced by DMEM and FBS as indicated above. The maximal concentration of DMSO in the cell wells was less than 0.5%. Four wells were used for each concentration.
(§2) Taxol- and dTCApFs-treated cells as well as the control cells were further incubated for 24 hours in the presence of BrdU as follows: 20 μl BrdU reagent (diluted 1:100 in DMEM supplemented with 2.5% FBS) was added to the cells and the plate was incubated 24 hours in 37° degrees incubator with 5% CO2. BrdU ELISA was performed according to the kit protocol (Millipore #2752).
(§3) Cells were placed at 2000 cells/well in the middle of a 96 well plate with 100 μl DMEM and 10% FBS for 24 hours in an incubator at 37° C. with 5% CO2. The medium was then replaced to 200 μl DMEM with 2.5% FBS and dTCApFs at a final concentration of 25 μg/ml (nextar ISK353-01 batch 351-01/1.68) in DMSO. The maximal concentration of DMSO in the cells wells was less than 0.5%. […]

[2] = system: human ovarian cancer cells (OV90); test: BrdU incorporation assay; assay type: cell-based; conditions: Taxol alone, 2 nM or 4 nM, FIG. 13A
Experimental: as §1, §2, §3

B16 cells = test: Melanoma tumors in mice, dTCApFs and doxorubicin; assay type: in vivo, C57bl/6 mice; conditions: doxorubicin alone, once a week at 3 mg/kg, FIG. 17
Experimental: In order to examine the effect of a combination of dTCApFs and doxorubicin on melanoma tumor volume, the following experiments were performed in mice. C57bl/6 mice (28) were inoculated SC with 0.2 million B16 cells (ATCC) per mouse. B16 melanoma is a murine tumor cell line used for research as a model for human skin cancers. When tumors exceeded a volume of 50 mm^3, the mice were randomly divided into 4 groups, as follows. “Control” group (n=6) was treated with 5% mannitol; “dTCApFs” treated group (n=6) was treated once a week with dTCApFs (at 15 mg/kg); “Dox” treated group (n=6) was treated once a week with doxorubicin (at 3 mg/kg); and dTCApFs+Dox same day” group (n=10) was treated once a week with dTCApFs and doxorubicin (at 15 mg/kg and 3 mg/kg, respectively), when both agents were administered on the same day.

[3] = system: human TNBC cells (human MDA231); test: Triple negative breast cancer tumors in mice; assay type: in vivo, nude mice; conditions: doxorubicin alone, once a week at 3 mg/kg, FIG. 14
Experimental: Therefore, 32 nude mice were inoculated subcutaneously (S.C.) with 9 million human TNBC cells (human MDA231, ATCC) per mouse. Cells were cultured as known in the art, for example, as described above. When the tumors exceeded a volume of 40 mm^3, the mice were randomly divided into five groups, as follows. The “Control” group (n=5) was treated with 5% mannitol; the “dTCApFs” group (n=5) was treated once a week with dTCApFs at 15 mg/kg; the “Dox” group (n=5) was treated once a week with doxorubicin (Sigma Aldrich) at 3 mg/kg; the “dTCApFs+Dox next day” (n=8) group was treated with dTCApFs at 15 mg/kg and 24 hours later also with doxorubicin, at 3 mg/kg; and the “dTCApFs+Dox same day” (n=9) group was treated with dTCApFs at 15 mg/kg and with doxorubicin at 3 mg/kg, on same day.

Structure (SMILES)	cell viability (BrdU incorporation) [1]	cell viability (BrdU incorporation) [2]	tumor volume (B16 cells)	tumor volume [3]
CC(=O)O[C@H]1C(=O)[C@@]2(C)[C@H]([C@H](OC(=O)c3ccccc3)[C@]3(O)C[C@H](OC(=O)[C@H](O)[C@@H](NC(=O)c4ccccc4)c4ccccc4)C(C)=C1C3(C)C)[C@]1(OC(C)=O)CO[C@@H]1C[C@@H]2O [Taxol, Paclitaxel]	no effect on cell viability was observed	no effect on cell viability was observed	–	–
COc1cccc2c1C(=O)c1c(O)c3c(c(O)c1C2=O)C[C@@](O)(C(=O)CO)C[C@@H]3O[C@H]1C[C@H](N)[C@H](O)[C@H](C)O1 [doxorubicin]	–	–	tumor volume clearly increased	clear increase in tumor volume
